# Results as given in patent US10597414B2, “Crystalline polymorphic form of 3-hydroxy-4,5-bis-benzyloxy-6-benzyloxymethyl-2-phenyl-2-OXO-2λ5-[1,2]oxaphosphinane” (PHOST'IN, priority 2016, dated 2020).
# Experiments:
# glioblastoma = settings: prior art, J. Med. Chem. 2012, 55, 2196-2211; cited from earlier work
# [1] = Dynamic vapor sorption (DVS) analysis; type: physicochemical
# Procedure: Dynamic Vapor Sorption (DVS)
# The analyses were performed on a Surface Measurements System DVS Intrinsic. The samples (few milligrams of product obtained by carrying out the above scheme 5) were placed in an open aluminum pan. Analyses were performed at 25° C.
# Relative humidity was scanned between 0% RH and 95% RH with 10% RH steps (40-0-95-0-95; unless stated otherwise). The stability criterion was a variation in mass lower than 0.002% on a 5 min. window (with a minimum step time of 10 min and a maximum of 100 min).
# [2] = Thermogravimetric analysis (TGA); type: physicochemical; settings: about 25° C. to 250° C., before and after melting
# Procedure: The analyses were performed on a Perkin Elmer Pyris 1 TGA. The samples (few milligrams of product obtained by carrying out the above scheme 5) were placed in an aluminum pan and the cover was crimped. Analyses were performed under nitrogen purge (20 mL/min) and the cover was punctured at the beginning of the analysis.
# Temperature scans were carried out between 25° C. and 300° C. at a speed of 10°/min (unless stated otherwise).
# [3] = Compression test followed by X-ray diffraction; type: physicochemical; settings: pressure of 10 tons for 5 min, 13 mm die
# Procedure: Compression Test The sample was introduced into a die with 13 mm diameter (m=103.83 mg). The sample was then compressed with a hydraulic press at a pressure of 10 tons for 5 minutes, and immediately analyzed by X-ray diffraction.
# [4] = Stability of polymorphic forms (maturation at room temperature, cross-seeding tests); type: physicochemical; settings: 25° C., several days of maturation
# Procedure: Other polymorphic forms could be obtained by recrystallizing out from specific organic solvents starting from the crystalline form of the invention. However, said other polymorphic forms are not stable after several days of maturation at room temperature (more specifically at 25° C.).
SMILES,Relative potency among the four diastereoisomers (glioblastoma),"Hygroscopicity ([1]; DVS, 0% RH to 95% RH, 25° C.)","DVS weight loss ([1]; drying steps, 25° C., relative humidity 0% RH to 95% RH)",XRPD pattern after DVS analysis compared with before ([1]; sample kept at 95% RH on the final step),"DVS weight gain with respect to the initial weight ([1]; steps at higher relative humidity conditions, 25° C.) [%]",Weight loss by TGA [2],Solid state stability after compression (diffraction pattern vs starting material) [3],Relative stability of polymorphic form [4]
O=[P@@]1(c2ccccc2)O[C@H](COCc2ccccc2)[C@@H](OCc2ccccc2)[C@H](OCc2ccccc2)[C@H]1O [PST3.1a],most potent diastereoisomer,,,,,,,
"O=P1(c2ccccc2)OC(COCc2ccccc2)C(OCc2ccccc2)C(OCc2ccccc2)C1O (centres unmarked) [crystalline form of compound I, 3-Hydroxy-4,5-bis-benzyloxy-6-benzyloxymethyl-2-phenyl-2-oxo-2λ5-[1,2]oxaphosphinane]",,non-hygroscopic,lower than 0.1%,same profile,0.1,no significant weight loss,same peaks,most stable form
